Reference: US20050153395A1, “Unique integrin binding site in connective tissue growth factor (CTGF)” (CHILDREN'S HOSPITAL INC., priority 2003, published 2005)
One block for each compound: values may come before it.

Tests used:
integrin α5β1 = integrin α5β1 (Homo sapiens, UniProt P05556+P08648); assay: Solid phase ELISA of integrin α5β1 binding; details: peptides 35 μM; EDTA 5 mM
Protocol: In a second approach, a solid phase binding assay was used in which CTGF1-4 or FN were individually coated onto microtiter wells that were subsequently incubated with purified integrin α5β1. The presence of immobilized integrin α5β1 was detected by ELISA using an anti-integrin α5β1 antibody similar to the methods described in Example 3 above. In addition, CTGF1-4 bound to integrin α5β1 in a dose-dependent manner, with maximal binding at 2 μg/ml CTGF. This level of CTGF1-4 (2 μg/ml) binding was the same as that elicited by 2 μg/ml FN, a well known ligand of integrin α5β1. In a similar experiment, 2 μg/ml of CTGF1-4;CTGF3-4 or CTGF4 were individually precoated onto microtiter wells. Using the solid-phase assay, integrin α5β1 bound to CTGF1-4, CTGF3-4 or CTGF4 See FIG. 5 (Panel B).
To directly analyze whether α5β1 integrin binds to CTGF4, microtiter wells coated with CTGF4 (2 μg/ml) or FN (4 μg/ml) were used in an ELISA assay to detect integrin binding, as described in Example 3. For these assays, 1 μg/ml integrin α5β1, alone or in the presence of 35 μM of P2peptide (CTGF[257-272]) and 35 μM of P5 peptide (CTGF [285-291]), were added to the precoated plates. […] The binding between CTGF4 and integrin α5 β1 was blocked by peptide P5 (CTGF [285-291]) or peptide P2 (CTGF[257-272]). […]

[1] = system: vascular endothelial cells, intestinal epithelial, and hepatic stellate cells; assay: Adhesion of cell types to 10 kDa CTGF; assay type: cell-based
Protocol: To confirm the functionality of residues 247-349 of SEQ ID NO: 1 (containing module 4 alone; denoted as CTGF4), this region of CTGF was produced as a maltose binding protein (MBP) fusion protein in E. coli as described in Ball et al., J Endocrinol; 176: R1-R7, 2003. […] HPLC-purified 10 kDa CTGF promoted 3T3 cell adhesion in a dose-dependent manner, with maximal binding at 8 ng/well. […] Also, the binding of all cell types to 10 kDa CTGF was reduced by EDTA treatment, though this effect was relatively modest in 3T3 cells. Thus, E coli-derived CTGF isoforms comprising essentially module 4 are intrinsically functional in the absence of the other constituent modules of CTGF.

[2] = system: pancreatic stellate cells (PSC); assay: PSC adhesion assay on coated wells; assay type: cell-based, rat; details: for inhibition of PSC adhesion to CTGF4: 2 μg/ml CTGF4 coat, peptides 35 μM; for inhibition of PSC adhesion to CTGF4 / inhibition of PSC adhesion to CTGF1-4: antibodies 25 μg/ml, heparin 2 μg/ml
Text: Rat PSCs were isolated by a modification of the method described by Phillips et al., Gut; 52:677-82, 2003. Briefly, pancreatic tissue was digested in situ with 0.03% collagenase P (Roche, Indianapolis, Ind.) in HBSS by perfusion through the thoracic aorta. This protocol was approved by the Institutional Animal Care and Use Committee of Children's Research Institute, Columbus, Ohio. The tissue was pooled, minced with scissors, and then digested with 0.05% collagenase P, 0.02% protease XIV (Sigma, St. Louis), and DNase I (Roche, Indianapolis, Ind.) in HBSS. The resulting cell suspension was centrifuged in a 12% Optiprep gradient at 1400 g for 14 minutes. Stellate cells separated into a hazy band just above the interface of a the gradient and the aqueous buffer. This band was harvested, and the cells washed and resuspended in DMEM supplemented with 25 mM Hepes buffer, 10% FBS, and 100 U/ml penicillin in, 100 μg/ml streptomycin. The, cells were maintained at 37° C. in a humidified atmosphere of 5% CO2/95% air.
The ability of activated PSC to adhere to non-tissue culture plastic microtiter wells coated with recombinant CTGF1-4, CTGF3-4 or CTGF4 was investigated. The solid phase binding assay was carried out as described in Example 2. […] To assess the possibility that CTGF-mediated PSC adhesion involved cell surface integrins, the effect of divalent cations on cell adhesion was examined, as described in Example 2. […]
Because CTGF is a heparin-binding protein, this property was further investigated.
To identify the peptides that bind to PSCs, cell adhesion assays were carried out as described in Example 3.
To further investigate the peptide binding, P2 or P5 (10 μM) or vehicle buffer alone (no add) were added to PSC cell suspensions for 30 minutes at room temperature.

[3] = system: hepatic stellate cells (HSC); assay: HSC adhesion assay on coated wells (CyQUANT fluorescence); assay type: cell-based, rat; details: for inhibition of CTGF1-4-mediated HSC adhesion: wells coated 2 μg/ml CTGF1-4; for inhibition of CTGF1-4-mediated HSC adhesion / inhibition of CTGF3-4-mediated HSC adhesion / inhibition of CTGF4-mediated HSC adhesion: EDTA 10 mM, GRGDsp 1 mM, Echistatin 2 μM; for inhibition of CTGF3-4-mediated HSC adhesion: wells coated 2 μg/ml CTGF3-4; for inhibition of CTGF4-mediated HSC adhesion: wells coated 2 μg/ml CTGF4, antibody/IgG 25 μg/ml; for inhibition of CTGF4-mediated HSC adhesion / inhibition of HSC adherence to CTGF[257-272]: heparin 2 μg/ml; for inhibition of HSC adherence to CTGF[257-272]: peptide-coated wells
Protocol: CTGF4 is known to be expressed in hepatic stellate cells (HSC) and to induce proliferation and extracellular matrix (ECM) production in these cells. (Williams et al., J Hepatol 32, 754-761, 2000; Paradis et al., Lab Invest 82, 767-774, 2002). The following experiments were carried out to determine if HSCs adhere to CTGF. HSCs were isolated from normal Sprague-Dowley rate by sequential perfusion with pronase/collagenase and purified by density gradient separation as described in Vyas et al. (Gastroenterology 109: 889-898, 1995).
The cells were subsequently detached using 1 mM EDTA PBS (137 mM NaCl, 2.7 mM KCl, 4.3 mM Na2HPO4, 1.4 mM KH2PO4, pH 7.3), washed twice in DMEM and resuspended in serum free medium containing 0.5% BSA. The cells-were plated (1.25×10^4 cells/well) in a 96 well plate coated with one of the following: 2 μg/ml CTGF isoform (CTGF1-4, CTGF3-4, CTGF4), 1 μg/ml laminin, or 4 μg/ml vitronectin and incubated for 20 minutes at 37° C. Subsequently the cells were washed with PBS and the adherent cells were fixed with 10% formalin and stained with CyQUANT GR dye/cell lysis buffer (Molecular Probes , Eugene, Oreg.) according to the manufacturer's instructions. The number of cells that adhered to CTGF isoforms or ECM protein was quantified by measuring the sample fluorescence intensity at Ex/Em: 480/520 nm using a micro-plate reader (CytoFluor™ 2350).
To determine if the CTGF-mediated HSC adhesion was carried out through integrin receptors, the experiment described above were carried out in the presence and absence of 10 mM EDTA. […] It is widely believed that Mn^2+ induces conformational shifts that mimic the physiological activation of β1 and β3 integrins (Roberts et al., J Biol Chem 278: 1975-1985, 2003, van der Pauw et al., J Periodontal Res 37: 317-323, 2002) as Mn^2+-induced activation leads to enhanced ligand-binding affinity and cell adhesion (Mould et al., J Biol Chem 277: 19800-19805, 2002, Loftus & Liddington J Clin Invest 100: S77-81, 1997, Lin et al., J Biol Chem 272: 14236-14243, […]).
Synthetic peptides GRGDsp (1 mM), GRGEsp (1 mM), Echistatin (2 μM) or vehicle buffer alone were added to the, HSC culture medium 30 minutes prior to plating.
In addition, adhesion assays as described in Example 1 were carried out in CTGF4 coated plates in the presence and absence of monoclonal antibody specific for αvβ3 (LM609).

β3 integrin = biological target: T1, β3 integrin (Homo sapiens, UniProt P05106); details: Gould et al. 1990; cited from earlier work
T1 sequence (P05106 27-788): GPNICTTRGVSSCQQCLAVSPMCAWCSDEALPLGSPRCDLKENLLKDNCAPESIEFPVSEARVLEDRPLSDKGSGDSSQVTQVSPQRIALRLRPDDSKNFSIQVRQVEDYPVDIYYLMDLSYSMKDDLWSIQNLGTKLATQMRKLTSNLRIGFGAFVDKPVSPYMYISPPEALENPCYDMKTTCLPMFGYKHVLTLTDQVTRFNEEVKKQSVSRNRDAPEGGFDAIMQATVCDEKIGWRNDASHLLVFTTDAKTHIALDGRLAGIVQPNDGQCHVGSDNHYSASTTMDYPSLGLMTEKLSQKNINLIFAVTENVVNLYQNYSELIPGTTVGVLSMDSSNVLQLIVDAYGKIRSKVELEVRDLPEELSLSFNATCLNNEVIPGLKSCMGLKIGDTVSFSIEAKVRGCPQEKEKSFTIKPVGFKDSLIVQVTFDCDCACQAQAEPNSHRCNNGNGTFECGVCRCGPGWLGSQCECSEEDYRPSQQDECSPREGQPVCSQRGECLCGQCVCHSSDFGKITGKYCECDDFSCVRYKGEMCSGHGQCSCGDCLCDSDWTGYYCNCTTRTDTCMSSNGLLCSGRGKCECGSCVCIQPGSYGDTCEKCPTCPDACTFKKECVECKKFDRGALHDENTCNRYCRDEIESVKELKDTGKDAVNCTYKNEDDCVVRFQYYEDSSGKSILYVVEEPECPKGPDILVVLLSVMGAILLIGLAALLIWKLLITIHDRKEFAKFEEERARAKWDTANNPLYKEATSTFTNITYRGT

integrin αvβ3 = integrin αvβ3 (Homo sapiens, UniProt P05106+P06756); assay: Integrin αvβ3-CTGF immunoprecipitation / immunoblot; assay type: binding; details: 20 μM Echistatin
Protocol: To further characterize the interaction between CTGF4 and integrin αvβ3, each CTGF isoforms (CTGF1-4, CTGF3-4, CTGF4) was individually mixed with αvβ3, followed by immunoprecipitation with rabbit anti-CTGF polyclonal antibody and immunoblotting with anti-αvβ3. Human integrin αvβ3 (2 μg) and each individual CTGF isoform (4 μg) were incubated in 1 ml NP40 buffer with rocking at 4° C. for 2 hours. As a control, 20 μM Echistatin was added prior to adding the CTGF isoforms. Subsequently, polyclonal rabbit anti-CTGF antibody (1:100) or mouse IgG was added to the complex and the mixtures were further incubated at 4° C. for 16 hours. After incubation, 25 ,μl of Protein A was added to each mixture for 1 hour. The samples were separated on 8% SDS-polyacrylamide gels, and transferred onto nitrocellulose. The membrane was then incubated with anti-human αvβ3 monoclonal antibody (1:1000) diluted in TBS/Tween 20 (0.05%) containing 5% non-fat milk. Integrin αvβ3 bound similarly to all CTGF isoforms.

CTGF = CTGF production by PSCs (immunoprecipitation); assay type: cell-based, rat; details: TGF-β1 20 ng/ml; P<0.01
CTGF promoter = CTGF promoter luciferase reporter pCCN2-Luc in PSCs; assay type: cell-based, rat
Protocol: TGF-β1 is a well characterized transcriptional activator of CTGF in other cell types. To further examine the mechanism by which TGF-β1 and other fibrogenic stimulators could influence CTGF production in PSCs, CTGF promoter activity in PSCs was evaluated using the luciferase reporter, pCCN2-Luc, as described in Gao et al., (J Hepatol 2004;40:431-8).

PSCs [4] = assay: PSC chemotaxis (migration) assay in culture insert; assay type: cell-based, rat
Protocol: To examine whether CTGF plays a role in PSC migration, a chemotaxis assay was carried out in which the migratory behavior of PSCs in the upper chamber of a culture insert was assessed following addition of CTGF to the lower chamber. […] PSC migration was also promoted by FN, PDGF or TGF-β1.

PSCs [5] = assay: PSC DNA synthesis, [3H]thymidine incorporation; assay type: cell-based, rat; details: 24 hours; CTGF1-4 effect in 0.1% serum, not in serum-free medium
Protocol: To measure the effect of CTGF on cell proliferation, DNA synthesis was measured by ^3H incorporation in PSCs. The cells were incubated for 24 hours with 0.2 μCi [^3H] thymidine in each well (24-well plate). The incorporation of [^3H] thymidine into PSC DNA was determined using a scintillation counter after the cells had been washed with PBS, fixed with 10% methanol, treated with cold 5% trichloroacetic acid, and lysed in 0.3 N NaOH.

Sequence of integrin αvβ3 (P06756 31-889 limits assumed, one chain of several): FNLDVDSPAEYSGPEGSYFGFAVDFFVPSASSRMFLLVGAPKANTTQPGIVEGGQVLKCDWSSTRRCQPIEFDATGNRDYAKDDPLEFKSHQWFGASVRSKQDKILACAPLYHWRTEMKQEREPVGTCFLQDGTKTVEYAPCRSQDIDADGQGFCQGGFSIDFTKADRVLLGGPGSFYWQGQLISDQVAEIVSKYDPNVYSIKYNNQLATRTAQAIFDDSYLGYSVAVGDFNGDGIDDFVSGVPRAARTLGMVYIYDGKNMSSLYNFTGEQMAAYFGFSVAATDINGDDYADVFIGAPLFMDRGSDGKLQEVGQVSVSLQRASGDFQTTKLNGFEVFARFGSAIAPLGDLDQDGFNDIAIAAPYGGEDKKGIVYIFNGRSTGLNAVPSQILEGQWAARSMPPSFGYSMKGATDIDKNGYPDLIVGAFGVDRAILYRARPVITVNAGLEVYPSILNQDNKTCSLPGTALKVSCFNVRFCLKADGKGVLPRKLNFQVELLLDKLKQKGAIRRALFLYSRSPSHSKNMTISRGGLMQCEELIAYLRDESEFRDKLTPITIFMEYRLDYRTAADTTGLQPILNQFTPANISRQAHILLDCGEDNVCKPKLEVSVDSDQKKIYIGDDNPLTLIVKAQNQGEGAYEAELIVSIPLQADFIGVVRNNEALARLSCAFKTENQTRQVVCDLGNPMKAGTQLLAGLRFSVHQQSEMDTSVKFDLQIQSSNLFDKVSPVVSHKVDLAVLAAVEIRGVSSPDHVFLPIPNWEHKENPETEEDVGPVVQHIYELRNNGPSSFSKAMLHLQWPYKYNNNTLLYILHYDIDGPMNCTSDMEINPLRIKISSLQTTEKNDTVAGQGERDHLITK
Sequence of integrin αvβ3 (P06756 891-1048 partner limits assumed, one chain of several): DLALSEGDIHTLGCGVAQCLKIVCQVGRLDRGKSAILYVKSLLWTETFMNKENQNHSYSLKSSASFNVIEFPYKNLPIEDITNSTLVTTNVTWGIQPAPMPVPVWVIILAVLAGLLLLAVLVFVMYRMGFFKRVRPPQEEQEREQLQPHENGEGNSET
Sequence of integrin α5β1 (P08648 42-894 limits assumed): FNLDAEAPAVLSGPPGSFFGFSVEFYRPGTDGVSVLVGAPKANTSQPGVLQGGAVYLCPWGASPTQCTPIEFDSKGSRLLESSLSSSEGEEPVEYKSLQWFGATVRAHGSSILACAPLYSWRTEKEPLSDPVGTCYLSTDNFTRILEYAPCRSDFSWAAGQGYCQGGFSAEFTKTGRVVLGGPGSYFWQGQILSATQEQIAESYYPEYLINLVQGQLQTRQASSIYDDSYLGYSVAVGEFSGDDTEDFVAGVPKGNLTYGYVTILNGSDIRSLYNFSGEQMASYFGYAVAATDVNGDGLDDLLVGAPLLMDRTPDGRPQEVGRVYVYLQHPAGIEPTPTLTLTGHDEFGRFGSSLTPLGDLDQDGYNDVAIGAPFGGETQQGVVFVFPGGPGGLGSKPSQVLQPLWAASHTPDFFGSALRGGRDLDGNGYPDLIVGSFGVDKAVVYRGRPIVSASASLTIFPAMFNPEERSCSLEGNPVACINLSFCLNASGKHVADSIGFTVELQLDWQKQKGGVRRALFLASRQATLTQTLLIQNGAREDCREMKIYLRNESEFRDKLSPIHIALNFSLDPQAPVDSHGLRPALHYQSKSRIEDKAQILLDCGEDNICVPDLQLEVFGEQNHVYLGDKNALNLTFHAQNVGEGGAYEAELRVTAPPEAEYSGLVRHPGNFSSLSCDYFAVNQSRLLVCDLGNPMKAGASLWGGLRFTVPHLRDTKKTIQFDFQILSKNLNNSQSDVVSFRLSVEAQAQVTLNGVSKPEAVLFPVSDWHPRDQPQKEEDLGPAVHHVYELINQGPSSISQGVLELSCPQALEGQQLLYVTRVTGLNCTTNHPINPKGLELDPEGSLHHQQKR
Sequence of integrin α5β1 (P08648 895-1049 partner limits assumed): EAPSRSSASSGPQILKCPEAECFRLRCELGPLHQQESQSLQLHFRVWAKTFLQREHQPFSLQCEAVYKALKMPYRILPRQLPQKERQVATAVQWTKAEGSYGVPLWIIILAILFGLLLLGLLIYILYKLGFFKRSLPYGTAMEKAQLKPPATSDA
Sequence of integrin α5β1 (P05556 21-798): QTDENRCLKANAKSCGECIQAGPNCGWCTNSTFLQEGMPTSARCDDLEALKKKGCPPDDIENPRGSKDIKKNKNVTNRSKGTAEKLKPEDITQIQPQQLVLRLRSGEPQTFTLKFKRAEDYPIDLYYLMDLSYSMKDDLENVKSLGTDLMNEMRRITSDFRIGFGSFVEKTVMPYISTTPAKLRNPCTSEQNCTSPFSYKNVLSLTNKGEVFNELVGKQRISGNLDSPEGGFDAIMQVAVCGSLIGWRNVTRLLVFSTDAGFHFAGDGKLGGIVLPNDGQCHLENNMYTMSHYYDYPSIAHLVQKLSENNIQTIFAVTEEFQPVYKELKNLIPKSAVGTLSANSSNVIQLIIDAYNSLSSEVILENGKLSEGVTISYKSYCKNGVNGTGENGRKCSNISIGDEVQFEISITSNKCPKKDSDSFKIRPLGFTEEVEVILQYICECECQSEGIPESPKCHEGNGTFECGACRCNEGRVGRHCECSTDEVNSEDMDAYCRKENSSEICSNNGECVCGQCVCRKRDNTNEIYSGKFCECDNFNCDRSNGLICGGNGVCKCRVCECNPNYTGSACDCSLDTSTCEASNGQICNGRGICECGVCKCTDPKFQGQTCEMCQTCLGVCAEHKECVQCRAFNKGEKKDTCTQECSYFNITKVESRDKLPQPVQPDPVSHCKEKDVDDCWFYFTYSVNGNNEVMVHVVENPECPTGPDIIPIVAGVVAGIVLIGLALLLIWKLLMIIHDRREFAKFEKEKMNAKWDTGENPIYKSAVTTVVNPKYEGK

inhibition of binding between CTGF4 and integrin α5β1 (integrin α5β1): blocked
Compound: O=C(O)CN(CCN(CC(=O)O)CC(=O)O)CC(=O)O [EDTA, reference compound]
binding of all cell types to 10 kDa CTGF after EDTA treatment ([1]; effect relatively modest in 3T3 cells): reduced
inhibition of PSC adhesion to CTGF4 ([2]; EDTA 5 mM): significantly decreased
inhibition of PSC adhesion to CTGF3-4 ([2]; EDTA 5 mM): significantly decreased
inhibition of PSC adhesion to CTGF1-4 ([2]; EDTA 5 mM): significantly decreased
inhibition of CTGF1-4-mediated HSC adhesion [3]: 50%
inhibition of CTGF3-4-mediated HSC adhesion [3]: 50%
inhibition of CTGF4-mediated HSC adhesion [3]: 90%

Compound: Echistatin (QCESGPCCRNCKFLKEGTICKRARGDDMDDYCNGKTCDCPRNPHKGPAT)
effectiveness relative to short RGDX peptides (β3 integrin): at least 500 times
competition for the binding of αvβ3 with CTGF4 (integrin αvβ3): fully competed
inhibition of HSC adherence to CTGF[257-272] [3]: 40%
inhibition of CTGF1-4-mediated HSC adhesion [3]: 58%
inhibition of CTGF3-4-mediated HSC adhesion [3]: 62%
inhibition of CTGF4-mediated HSC adhesion [3]: 69%

activity of pCCN2-Luc in PSC (CTGF promoter; P<0.01 compared with no stimulation): significantly increased
activation of pCCN2-Luc compared among four stimulators (CTGF promoter; P<0.05): strongest activation
Compound: TGF-β1: transcriptional activator of CTGF
CTGF1-4, CTGF3-4 and CTGF4 levels in cell lysates and conditioned medium (CTGF): significantly increased
PSC migration (PSCs [4]; substance in lower chamber): promoted
PSC proliferation (DNA synthesis) (PSCs [5]): did not induce proliferation

Compound: heparin
inhibition of binding of each cell type to 10 kDa CTGF ([1]; 5 μg/ml heparin, each cell type incl. 3T3): completely inhibited
inhibition of PSC migration in response to CTGF (PSCs [4]; CTGF1-4 or CTGF4): blocked
inhibition of PSC adhesion to CTGF4 ([2]; EDTA 5 mM): blocked
inhibition of PSC adhesion to CTGF1-4 ([2]; EDTA 5 mM): blocked
inhibition of FN-mediated PSC adhesion ([2]; fibronectin coat): little effect
inhibition of HSC adherence to CTGF[257-272] [3]: abrogated
inhibition of CTGF4-mediated HSC adhesion [3]: completely abrogated
inhibition of vitronectin-mediated HSC adhesion ([3]; wells coated 4 μg/ml vitronectin): little effect
